Test results taken from patent US20160130234A1, “PHARMACEUTICAL COMPOSITIONS BASED ON PHOTOCHEMICALLY STABLE SILVER COMPLEXES, CHLOREXIDINE AND CATIONIC SURFACTANTS” (PAVIA FARMACEUTICI S.R.L., priority 2013, published 2016).

Legend:
[1] = system: Staphylococcus aureus (ATCC-6538) and Pseudomonas aeruginosa (ATCC-15442); test: quantitative suspension test for bactericidal activity, UNI EN 1272:2009; type: cell-based
Method: The bactericidal activity was tested on aqueous solutions of the complex of Example 1, (i.e. where the ligand L coordinated to the silver ion is the 2-Mercapto-5-benzimidazolesulfonic acid sodium salt).
The bactericidal activity tests were carried out according to UNI EN 1272:2009 and UNI EN 13697:2001 standards, which makes reference to chemical disinfectants and antiseptics, by using the following test organism: Staphylococcus aureus (ATCC-6538), as representative of Gram-positive bacteria and Pseudomonas aeruginosa (ATCC-15442), as representative of Gram-negative bacteria.

[2] = system: sepsis; settings: burns treated with silver nitrate; decreased from 60%; cited from earlier work
[3] = system: Staphylococcus epidermidis; settings: cited from earlier work

O=[N+]([O-])[O-].[Ag+] [Silver Nitrate]
antimicrobial activity after exposure to ambient light ([1]; after exposure to ambient light, reduction of Ag^+ to Ag^∘): lose the antimicrobial activity | reduction of bacterial count compared with the silver complex ([1]; solution of comparable concentration): analogously | number of deaths that were a result of sepsis [2]: 28%

[H]/N=C(\N/C(=N/[H])NCCCCCCNC(=N)NC(=N)Nc1ccc(Cl)cc1)Nc1ccc(Cl)cc1 [chlorhexidine]
development of resistance by Staphylococcus epidermidis [3]: no evidence of resistance was observed

polyhexametylene biguanide
development of resistance by Staphylococcus epidermidis [3]: no evidence of resistance was observed
